Source: PMC6225228, “Design, Synthesis and Evaluation of N-pyrazinylbenzamides as Potential Antimycobacterial Agents” (Molecules : A Journal of Synthetic Chemistry and Natural …, 2018)
≈ marks a conversion by molar mass, not a printed value. Where two headings read alike, the source gives them in different places.

Experiments:
[1] = test system: Mycobacterium tuberculosis H37Rv CNCTC My 331/88 (ATCC 27294); test: Antimycobacterial microdilution MABA, M. tuberculosis; type: cell-based; details: Mycobacterium tuberculosis, read-out: Mtb H37Rv ATCC 27294 MIC, Middlebrook 7H9 with OADC growth supplement, pH = 6.6, MABA
[2] = test system: M. kansasii CNCTC My 235/80 (ATCC 12478); test: Antimycobacterial microdilution MABA, M. kansasii; type: cell-based, Mycobacterium kansasii; details: Mycobacterium kansasii, ATCC12478, pH 6.6, read-out: M. kans. ATCC 12478 MIC, Middlebrook 7H9 with OADC, pH 6.6, MABA
[3] = test system: M. avium ssp. avium CNCTC My 80/72 (ATCC 15769); test: Antimycobacterial microdilution MABA, M. avium; type: cell-based, Mycobacterium avium; details: Mycobacterium avium, ATCC15769, pH 6.6, read-out: M. avium ATCC 15769 MIC
[4] = test system: Mycobacterium smegmatis CCM 4622 (ATCC 607); test: Antimycobacterial microdilution, M. smegmatis; type: cell-based; details: Mycolicibacterium smegmatis, read-out: M. smeg. ATCC 607 MIC
[5] = test system: Staphylococcus aureus CCM 4516/08; test: Antibacterial microdilution broth, SA; type: cell-based; details: Staphylococcus aureus
[6] = test system: Staphylococcus aureus H 5996/08 methicillin resistant; test: microbe, parasite or virus in culture; type: cell-based; details: for MIC: Staphylococcus aureus, MRSA, read-out: MIC MRSA
[7] = test system: Staphylococcus epidermidis H 6966/08; test: Antibacterial microdilution broth, SE; type: cell-based; details: read-out: MIC SE
[8] = test system: Enterococcus sp. J 14365/08; test: Antibacterial microdilution broth, EF; type: cell-based; details: Enterococcus, read-out: MIC EF
[9] = test system: Escherichia coli CCM 4517; test: Antibacterial microdilution broth, EC; type: cell-based; details: Escherichia coli, read-out: MIC EC
[10] = test system: Pseudomonas aeruginosa CCM 1961; test: Antibacterial microdilution broth, PA; type: cell-based; details: Pseudomonas aeruginosa, read-out: MIC PA
[11] = test system: Candida albicans ATCC 44859; test: Antifungal microdilution broth, CA; type: cell-based; details: Candida albicans, read-out: MIC CA
Candida tropicalis 156 = test: Antifungal microdilution broth, CT; type: cell-based; details: read-out: MIC CT
Candida krusei E28 = test: Antifungal microdilution broth, CK; type: cell-based; details: Pichia kudriavzevii, read-out: MIC CK
Candida glabrata 20/I = test: Antifungal microdilution broth, CG; type: cell-based; details: Nakaseomyces glabratus, 20/I, read-out: MIC CG
Trichosporon asahii 1188 = test: Antifungal microdilution broth, TA; type: cell-based; details: read-out: MIC TA
[12] = test system: Aspergillus fumigatus 231; test: Antifungal microdilution broth, AF; type: cell-based; details: read-out: MIC AF
[13] = test system: Lichtheimia corymbifera 272; test: Antifungal microdilution broth, LC; type: cell-based; details: read-out: MIC LC
[14] = test system: Trichophyton interdigitale 445; test: Antifungal microdilution broth, TI; type: cell-based; details: read-out: MIC TI
[15] = CCM4516, 24 h, read-out: MIC SA, 24 h
[16] = CCM4516, 48 h, read-out: MIC SA, 48 h
[17] = Staphylococcus epidermidis, H6966/08, 24 h
[18] = Staphylococcus epidermidis, H6966/08, 48 h
[19] = Trichosporon asahii, 1188, 24 h
[20] = Trichosporon asahii, 1188, 48 h
[21] = Aspergillus fumigatus, 231, 24 h
[22] = Aspergillus fumigatus, 231, 48 h
[23] = Lichtheimia corymbifera, 272, 24 h
[24] = Lichtheimia corymbifera, 272, 48 h
[25] = Trichophyton interdigitale, 445, 72 h
[26] = Trichophyton interdigitale, 445, 120 h

For `COc1cccc(C(=O)Nc2cnc(Cl)cn2)c1` [Compound 2f], the MIC [1] was greater than 100 µg/mL, the MIC [2] was greater than 100 µg/mL and the MIC [3] was greater than 100 µg/mL. It also gave an MIC [4] of no less than 500 µg/mL, an MIC [5, 15] of 31.2 µM (≈ 8.24 µg/mL) and an MIC [5, 16] of 31.2 µM (≈ 8.24 µg/mL). The “MIC MRSA” value ([6]; 24 h) was greater than 500 µM, the “MIC MRSA” value ([6]; 48 h) was greater than 500 µM and the MIC ([6]; 24 h) was greater than 500 µM. For the same molecule, the MIC ([6]; 48 h) was greater than 500 µM, the MIC ([7]; 24 h) was greater than 500 µM and the MIC ([7]; 48 h) was greater than 500 µM. The MIC [7, 17] was greater than 500 µM, the MIC [7, 18] was greater than 500 µM and the MIC ([8]; SP.J14365/08, 24 h) was greater than 500 µM. For the same molecule, the MIC ([8]; SP.J14365/08, 48 h) was greater than 500 µM, the MIC ([9]; CCM4517, 24 h) was greater than 500 µM and the MIC ([9]; CCM4517, 48 h) was greater than 500 µM. The MIC ([10]; CCM1961, 72 h) was greater than 500 µM, the MIC ([10]; CCM1961, 120 h) was greater than 500 µM and the MIC ([11]; ATCC44859, 24 h) was 125 µM (≈ 33 µg/mL). For the same molecule, the MIC ([11]; ATCC44859, 48 h) was 500 µM (≈ 132 µg/mL), the MIC (Candida tropicalis 156; Candida tropicalis, 156, 24 h) was greater than 500 µM and the MIC (Candida tropicalis 156; Candida tropicalis, 156, 48 h) was greater than 500 µM. It also gave an MIC (Candida krusei E28; E28, 24 h) greater than 500 µM, an MIC (Candida krusei E28; E28, 48 h) greater than 500 µM and an MIC (Candida glabrata 20/I; 24 h) greater than 500 µM. It also gave an MIC (Candida glabrata 20/I; 48 h) greater than 500 µM, an MIC (Trichosporon asahii 1188; [19]) greater than 500 µM and an MIC (Trichosporon asahii 1188; [20]) greater than 500 µM. For the same molecule, the MIC [12, 21] was greater than 500 µM, the MIC [12, 22] was greater than 500 µM and the MIC [13, 23] was greater than 500 µM. For the same molecule, the MIC [13, 24] was greater than 500 µM, the MIC [14, 25] was greater than 500 µM and the MIC [14, 26] was greater than 500 µM.
Work on `CCc1ccc(C(=O)Nc2cnccn2)cc1` [Compound 1i] yielded an MIC [1] greater than 100 µg/mL, an MIC [2] greater than 100 µg/mL and an MIC [3] greater than 100 µg/mL. It also gave an MIC [4] of no less than 500 µg/mL, an MIC [5, 15] greater than 500 µM and an MIC [5, 16] greater than 500 µM. It also gave an MIC ([6]; 24 h) greater than 500 µM, an MIC ([6]; 48 h) greater than 500 µM and an MIC [7, 17] of 500 µM (≈ 114 µg/mL). The MIC [7, 18] was 500 µM (≈ 114 µg/mL), the MIC ([8]; SP.J14365/08, 24 h) was 500 µM (≈ 114 µg/mL) and the MIC ([8]; SP.J14365/08, 48 h) was 500 µM (≈ 114 µg/mL). It also gave an MIC ([9]; CCM4517, 24 h) greater than 500 µM, an MIC ([9]; CCM4517, 48 h) greater than 500 µM and an MIC ([10]; CCM1961, 72 h) greater than 500 µM. It also gave an MIC ([10]; CCM1961, 120 h) greater than 500 µM, an MIC ([11]; ATCC44859, 24 h) greater than 500 µM and an MIC ([11]; ATCC44859, 48 h) greater than 500 µM. It also gave an MIC (Candida tropicalis 156; Candida tropicalis, 156, 24 h) greater than 500 µM, an MIC (Candida tropicalis 156; Candida tropicalis, 156, 48 h) greater than 500 µM and an MIC (Candida krusei E28; E28, 24 h) greater than 500 µM. The MIC (Candida krusei E28; E28, 48 h) was greater than 500 µM, the MIC (Candida glabrata 20/I; 24 h) was greater than 500 µM and the MIC (Candida glabrata 20/I; 48 h) was greater than 500 µM. For the same molecule, the MIC (Trichosporon asahii 1188; [19]) was greater than 500 µM, the MIC (Trichosporon asahii 1188; [20]) was greater than 500 µM and the MIC [12, 21] was greater than 500 µM. The MIC [12, 22] was greater than 500 µM, the MIC [13, 23] was greater than 500 µM and the MIC [13, 24] was greater than 500 µM. It also gave an MIC [14, 25] greater than 500 µM and an MIC [14, 26] greater than 500 µM.
